Experimental findings from patent US10144746B2 (GLOBAL BLOOD THERAPEUTICS, INC., priority 2015, dated 2018) are described below.

Molecules are shown by their SMILES.

The assay deals with Human plasma kallikrein (Homo sapiens (Human), UniProt P03952). Nature of the assay: In vitro plasma kallikrein inhibition assay (chromogenic substrate D-Pro-Phe-Arg-pNa, absorbance at 405 nm, IC50 determination). The class given is biochemical. Particulars: read-out: KLKB1 pIC50 (converted).
Chain of Human plasma kallikrein (P03952 391-638): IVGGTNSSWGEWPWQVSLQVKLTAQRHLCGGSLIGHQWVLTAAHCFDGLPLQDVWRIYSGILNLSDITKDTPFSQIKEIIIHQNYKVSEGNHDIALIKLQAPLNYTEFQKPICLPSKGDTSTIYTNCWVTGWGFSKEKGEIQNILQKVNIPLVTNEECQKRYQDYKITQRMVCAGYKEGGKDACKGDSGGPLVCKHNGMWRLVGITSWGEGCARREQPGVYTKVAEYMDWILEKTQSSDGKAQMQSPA
Chain of Human plasma kallikrein (P03952 20-390 partner): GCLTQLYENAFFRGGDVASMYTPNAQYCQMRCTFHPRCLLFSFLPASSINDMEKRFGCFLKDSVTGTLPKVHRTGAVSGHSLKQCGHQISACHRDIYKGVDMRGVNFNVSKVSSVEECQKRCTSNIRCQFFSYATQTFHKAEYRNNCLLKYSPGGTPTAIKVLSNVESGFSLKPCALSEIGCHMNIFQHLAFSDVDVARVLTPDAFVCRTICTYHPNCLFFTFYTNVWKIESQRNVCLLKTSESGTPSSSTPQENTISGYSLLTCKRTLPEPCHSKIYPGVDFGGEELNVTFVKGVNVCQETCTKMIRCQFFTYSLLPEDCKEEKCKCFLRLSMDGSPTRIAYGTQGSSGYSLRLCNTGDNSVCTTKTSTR
As to `Nc1noc2ccc(NC(=O)c3ccc4c(c3)[C@@H]3O[C@H]4c4ccc(-c5ccc(F)cc5F)cc43)cc12` (single isomer, unassigned) [Example 245], the IC50 was 10000 nM.
Consider `Cc1nc(N)cc(C(F)(F)F)c1CNC(=O)c1ccc2c(c1)[C@@H]1O[C@H]2c2ccc(-c3ccc(F)cc3F)cc21` (single isomer, unassigned) [Example 246], for which the IC50 was 10700 nM.
With `Cc1nc(N)cc(C2CCOCC2)c1CNC(=O)c1ccc2c(c1)[C@@H]1O[C@H]2c2ccc(-c3ccc(F)cc3F)cc21` (single isomer, unassigned) [Example 247], the IC50 is 5.01 nM.
On to `CCc1cc(N)nc(CC)c1CNC(=O)c1ccc2c(c1)[C@@H]1O[C@H]2c2ccc(-c3ccc(F)cc3F)cc21` (single isomer, unassigned) [Example 248], for which the IC50 is 2570 nM.
`Cc1cc(N)nc(C)c1CNC(=O)c1ccc2c(c1)[C@@H]1O[C@H]2c2ccc(N(c3cccc(F)c3)C(C)C)cc21` (single isomer, unassigned) [Example 249]: the IC50 was 93.3 nM.
`CCCN(c1cccc(F)c1)c1ccc2c(c1)[C@H]1O[C@@H]2c2ccc(C(=O)NCc3c(C)cc(N)nc3C)cc21` (single isomer, unassigned) [Example 250]: the IC50 was 33.1 nM.
Regarding `Cc1cc(N)nc(C)c1CNC(=O)c1ccc2c(c1)[C@@H]1O[C@H]2c2ccc(-c3cn4ccccc4n3)cc21` (single isomer, unassigned) [Example 252], the IC50 is 93.3 nM.
As for `COc1ccc(CNC(=O)c2ccc3c(c2)[C@@H]2O[C@H]3c3ccc(-c4ccccc4F)cc32)cc1` (single isomer, unassigned) [Example 253], the figure is 100000 nM.
As for `Cc1cc(N)nc(C)c1CNC(=O)c1ccc2c(c1)[C@@H]1O[C@H]2c2ccc(Cc3ccccc3)cc21` (single isomer, unassigned) [Example 254], the figure is 19.1 nM.
`N=C(N)c1cc(F)c(CNC(=O)c2ccc3c(c2)[C@@H]2O[C@H]3c3ccc(-c4ccc(F)cc4F)cc32)c(F)c1` (single isomer, unassigned) [Example 256]: the IC50 is 0.759 nM.
As for `Nc1cc(C2CC2)c(CNC(=O)c2ccc3c(c2)[C@@H]2O[C@H]3c3ccc(-c4ccc(F)cc4F)cc32)c(C2CC2)n1` (single isomer, unassigned) [Example 257], the figure is 200000 nM; as for `N=C(N)c1cccc(NC(=O)c2ccc3c(c2)[C@@H]2O[C@H]3c3ccc(-c4ccc(F)cc4F)cc32)c1` (single isomer, unassigned) [Example 258], 10000 nM.
For `N=C(N)c1ccc(CNC(=O)c2ccc3c(c2)[C@@H]2O[C@H]3c3ccc(C4CC4)cc32)cc1` (single isomer, unassigned) [Example 259], the IC50 is 2 nM.
As to `Cc1cc(N)nc(C)c1CNC(=O)c1ccc2c(c1)[C@@H]1O[C@H]2c2ccc(N(c3cccc(F)c3)S(C)(=O)=O)cc21` (single isomer, unassigned) [Example 260], the IC50 was 186 nM.
`Cc1cc(N)nc(C)c1CNC(=O)c1ccc2c(c1)[C@@H]1O[C@H]2c2ccc(N(C)c3cccc(Cl)c3)cc21` (single isomer, unassigned) [Example 262]: the IC50 was 8.91 nM.
With `COc1ccc(Cl)c(CNC(=N)c2ccc3c(c2)[C@@H]2O[C@H]3c3ccc(-c4ccc(F)cc4F)cc32)c1F` (single isomer, unassigned) [Example 264], the IC50 is 2400 nM.
On to `Cc1nc(N)cc(C(C)C)c1CNC(=O)c1ccc2c(c1)[C@@H]1O[C@H]2c2ccc(-c3cc[n+]([O-])cc3F)cc21` (single isomer, unassigned) [Example 265], for which the IC50 was 91.2 nM.
Regarding `Cc1nc(N)cc(C2=CCOC2)c1CNC(=O)c1ccc2c(c1)[C@@H]1O[C@H]2c2ccc(-c3ccc(F)cc3F)cc21` (single isomer, unassigned) [Example 267], the IC50 was 97.7 nM.
Take `N=C(N)c1ccc(CNC(=O)c2ccc3c(c2)[C@@H]2O[C@H]3c3ccc(-c4ccc(F)cc4F)cc32)cn1` (single isomer, unassigned) [Example 268]: the IC50 is 5.01 nM.
On to `CCOC(=O)N=C(N)c1cc(F)c(CNC(=O)c2ccc3c(c2)[C@@H]2O[C@H]3c3ccc(-c4ccc(F)cc4F)cc32)c(F)c1` (single isomer, unassigned) [Example 269], for which the IC50 was 1230 nM.
As for `O=C(NCc1ccc(-c2noc(=O)[nH]2)cc1)c1ccc2c(c1)[C@@H]1O[C@H]2c2ccc(-c3ccc(F)cc3F)cc21` (single isomer, unassigned) [Example 270], the figure is 100000 nM; as for `CCOC(=O)N=C(N)c1ccc(CNC(=O)c2ccc3c(c2)[C@@H]2O[C@H]3c3ccc(-c4ccc(F)cc4F)cc32)cc1` (single isomer, unassigned) [Example 273], 6030 nM.
The figure for `N=C(N)c1cc(F)c(CNC(=O)c2ccc3c(c2)[C@@H]2O[C@H]3c3ccc(-c4nccs4)cc32)c(F)c1` (single isomer, unassigned) [Example 275] is 2 nM; for `CC(C)(O)c1ccc2c(c1)[C@H]1O[C@@H]2c2ccc(C(=O)NCc3ccc(C(=N)N)cc3)cc21` (single isomer, unassigned) [Example 277] it is 35.5 nM.
The figure for `Cc1nc(N)cc(C2CC2)c1CNC(=O)c1ccc2c(c1)[C@@H]1O[C@H]2c2ccc(-c3cc[n+]([O-])cc3F)cc21` (single isomer, unassigned) [Example 278] is 34.7 nM.
In the case of `Cc1ccc(C(=O)c2ccc3c(c2)[C@H]2O[C@@H]3c3ccc(C(=O)NCc4c(C)cc(N)nc4C)cc32)o1` (single isomer, unassigned) [Example 279], the IC50 is 22.9 nM.
On to `N=C(N)c1cc(F)c(CNC(=O)c2ccc3c(c2)[C@@H]2O[C@H]3c3ccc(C4CC4)cc32)c(F)c1` (single isomer, unassigned) [Example 280], for which the IC50 was 0.759 nM.
On to `CC(F)(F)c1ccc2c(c1)[C@H]1O[C@@H]2c2ccc(C(=O)NCc3ccc(C(=N)N)cc3)cc21` (single isomer, unassigned) [Example 281], for which the IC50 is 10 nM.
Take `N#Cc1cc(NC(=N)c2ccc3c(c2)[C@@H]2O[C@H]3c3ccc(-c4ccc(F)cc4F)cc32)ccc1F` (single isomer, unassigned) [Example 283]: the IC50 is 100000 nM.
As for `CC(C)(F)c1ccc2c(c1)[C@H]1O[C@@H]2c2ccc(C(=O)NCc3ccc(C(=N)N)cc3)cc21` (single isomer, unassigned) [Example 284], the figure is 6.31 nM; as for `C=C(C)c1ccc2c(c1)[C@H]1O[C@@H]2c2ccc(C(=O)NCc3c(F)cc(C(=N)N)cc3F)cc21` (single isomer, unassigned) [Example 285], 1 nM.
Consider `N=C(N)c1cc(F)c(CNC(=O)c2ccc3c(c2)[C@@H]2O[C@H]3c3ccc(-n4cccn4)cc32)c(F)c1` (single isomer, unassigned) [Example 286], for which the IC50 was 2.45 nM.
For the molecule `Cc1nc(N)cc(C(C)C)c1CNC(=O)c1ccc2c(c1)[C@@H]1O[C@H]2c2ccc(-c3c(F)ccc[n+]3[O-])cc21` (single isomer, unassigned) [Example 289], the IC50 is 123 nM.
For `N=C(N)c1ccc(CNC(=O)c2ccc3c(c2)[C@@H]2O[C@H]3c3ccc(-c4ccccc4F)cc32)c(F)c1` (single isomer, unassigned) [Example 290], the IC50 is 1 nM.
`NC(=O)c1cccc(CNC(=O)c2ccc3c(c2)[C@@H]2O[C@H]3c3ccc(-c4ccc(F)cc4F)cc32)c1` (single isomer, unassigned) [Example 292]: the IC50 is 100000 nM.
For the molecule `Nc1nccc2c(CNC(=O)c3ccc4c(c3)[C@@H]3O[C@H]4c4ccc(-c5ccccc5F)cc43)c(Cl)ccc12` (single isomer, unassigned) [Example 294], the IC50 is 20.9 nM.
Turning to `Nc1nccc2cc(Cl)c(CNC(=O)c3ccc4c(c3)[C@@H]3O[C@H]4c4ccc(-c5ccccc5F)cc43)cc12` (single isomer, unassigned) [Example 295], the IC50 was 10000 nM.
Turning to `N=C(N)c1cc(F)c(CNC(=O)c2ccc3c(c2)[C@@H]2O[C@H]3c3ccc(CCC(F)(F)F)cc32)c(F)c1` (single isomer, unassigned) [Example 296], the IC50 was 1 nM.
Regarding `CC(C)c1ccc2c(c1)[C@H]1O[C@@H]2c2ccc(C(=O)NCc3c(F)cc(C(=N)N)cc3F)cc21` (single isomer, unassigned) [Example 298], the IC50 was 2 nM.
As to `Cc1ccc2c(N)nccc2c1CNC(=O)c1ccc2c(c1)[C@@H]1O[C@H]2c2ccc(-c3ccccc3F)cc21` (single isomer, unassigned) [Example 299], the IC50 was 30.9 nM.
As for `N=C(N)c1ccc(CNC(=O)c2ccc3c(c2)[C@@H]2O[C@H]3c3ccc(C4CC4)cc32)c(F)c1` (single isomer, unassigned) [Example 302], the figure is 1 nM; as for `N=C(N)c1ccc(CNC(=O)c2ccc3c(c2)[C@@H]2O[C@H]3c3ccc(-n4cccn4)cc32)cc1` (single isomer, unassigned) [Example 305], 8.91 nM.
Regarding `Cc1cc(C(=N)N)ccc1CNC(=O)c1ccc2c(c1)[C@@H]1O[C@H]2c2ccc(-c3ccc(F)cc3F)cc21` (single isomer, unassigned) [Example 306], the IC50 is 1 nM.
Consider `N=C(N)c1ccc(CNC(=O)c2ccc3c(c2)[C@@H]2O[C@H]3c3ccc(N4CC(F)(F)C4)cc32)cc1` (single isomer, unassigned) [Example 307], for which the IC50 was 1 nM.
Consider `Cc1cc(C(=N)N)ccc1CNC(=O)c1ccc2c(c1)[C@@H]1O[C@H]2c2ccc(-n3cccn3)cc21` (single isomer, unassigned) [Example 312], for which the IC50 was 1 nM.
`O=C(NCC1CNC1)c1ccc2c(c1)[C@@H]1O[C@H]2c2ccc(-c3ccc(F)cc3F)cc21` (single isomer, unassigned) [Example 323]: the IC50 is 100000 nM.
On to `O=C(N[C@@H]1CCNC1)c1ccc2c(c1)[C@@H]1O[C@H]2c2ccc(-c3ccc(F)cc3F)cc21` (single isomer, unassigned) [Example 324], for which the IC50 was 100000 nM.
As for `O=C(N[C@H]1CCNC1)c1ccc2c(c1)[C@@H]1O[C@H]2c2ccc(-c3ccc(F)cc3F)cc21` (single isomer, unassigned) [Example 325], the IC50 was 42700 nM.
